Measurements as given in publication PMC6964273 (ACS Omega, 2019).
Read-outs that look alike come from different tables or passages of the source.

Experiments:
[1] = test system: cervical cancer cell line (HeLa); experiment: MTT cell viability assay on HeLa; assay type: cell-based, human
[2] = test system: SK-MEL3 metastatic melanoma cancer cell line; experiment: MTT cell viability assay on SK-MEL3; assay type: cell-based, human; details: read-out: IC50 ± SD SK-MEL3
SK-MEL3 cancer cell line = experiment: DFO assay; assay type: cell-based, human
[3] = test system: RPMI-7951 cancer cell line; experiment: DFO assay; assay type: cell-based, human
C3PV cell line = experiment: MTT cell viability assay on normal primary fibroblasts C3PV; assay type: cell-based, human; details: for IC50: 24 h, read-out: IC50 ± SD C3PV
[4] = test system: SK-MEL24 cancer cell line; experiment: DFO assay; assay type: cell-based, human
[5] = test system: SK-MEL24 metastatic melanoma cancer cell line; experiment: MTT cell viability assay on SK-MEL24; assay type: cell-based, human; details: read-out: IC50 ± SD SK-MEL24
[6] = test system: RPMI-7951 metastatic melanoma cancer cell line; experiment: MTT cell viability assay on RPMI-7951; assay type: cell-based, human; details: read-out: IC50 ± SD RPMI-7951
[7] = Stability in the cell culture medium by TLC and HPLC; assay type: physicochemical; details: 48 h, room temperature
[8] = read-out: IC50 ± SD SK-MEL3 without DFO, without DFO, treatment time 24 hours
[9] = read-out: IC50 ± SD RPMI-7951 without DFO, without DFO, treatment time 24 hours
[10] = read-out: IC50 ± SD SK-MEL24 without DFO, without DFO, treatment time 24 hours
[11] = Homo sapiens, read-out: IC50 ± SD HeLa
[12] = Homo sapiens, SK-MEL3, 24 h, read-out: IC50 ± SD SK-MEL3 without DFO
[13] = Homo sapiens, SK-MEL3, read-out: IC50 ± SD SK-MEL3 with DFO
[14] = Homo sapiens, RPMI-7951, 24 h, read-out: IC50 ± SD RPMI-7951 without DFO
[15] = Homo sapiens, RPMI-7951, read-out: IC50 ± SD RPMI-7951 with DFO
[16] = Homo sapiens, SK-MEL-24, 24 h, read-out: IC50 ± SD SK-MEL24 without DFO
[17] = Homo sapiens, SK-MEL-24, read-out: IC50 ± SD SK-MEL24 with DFO

Row | SMILES | IC50 [1, 11] | IC50 ([2]; Homo sapiens, SK-MEL3, 24 h) | IC50 ([5]; Homo sapiens, SK-MEL-24, 24 h) | IC50 ([6]; Homo sapiens, RPMI-7951, 24 h) | IC50 (C3PV cell line; Homo sapiens, C3PV) | also measured
1 | C=C(C)C1CC=C(COC(=O)CCC(=O)OC2OC3OC4(C)CCC5C(C)CCC(C2C)C35OO4)CC1 (stereo not drawn) [Compound 11iii] |  |  |  |  |  | IC50 ([1]; read-out: IC50 ± SD HeLa, MTT): 1760 ± 470 nM; IC50 ([2]; SK-MEL3, MTT, 24 h): 5240 ± 2290 nM; IC50 (SK-MEL3 cancer cell line; [8]): 5240 ± 200 nM; IC50 [3, 9]: 2350 ± 900 nM; cytotoxicity on normal cell line C3PV (in words) (C3PV cell line; C3PV, MTT): not cytotoxic; IC50 [4, 10]: 60 ± 10 nM; IC50 ([5]; SK-MEL24, MTT, 24 h): 60 ± 100 nM; IC50 ([6]; RPMI-7951, MTT, 24 h): 2350 ± 1520 nM
2 | C[C@@H]1CC[C@H]2[C@@H](C)C(=O)O[C@@H]3O[C@@]4(C)CC[C@@H]1[C@]32OO4 [Compound 1, Artemisinin] | 1370 ± 590 nM | 3430 ± 860 nM | 8660 ± 4560 nM | 3620 ± 990 nM | > 300000 nM | IC50 (SK-MEL3 cancer cell line; [12]): 3430 ± 800 nM; IC50 (SK-MEL3 cancer cell line; [13]): > 300000 nM; IC50 [3, 14]: 3620 ± 1600 nM; IC50 [3, 15]: 29000 ± 2800 nM; cytotoxicity on normal cell line C3PV (in words) (C3PV cell line; C3PV, MTT): not cytotoxic; IC50 [4, 16]: 8660 ± 900 nM; IC50 [4, 17]: 27800 ± 3400 nM
3 | C[C@H]1[C@@H](O)O[C@@H]2O[C@@]3(C)CC[C@H]4[C@H](C)CC[C@@H]1[C@@]24OO3 [Compound 2, dihydroartemisinin] | 1320 ± 260 nM | 10400 ± 610 nM | 3230 ± 1600 nM | 910 ± 450 nM | 680 ± 190 nM | 
4 | C[C@H]1[C@H](OC(=O)CCC(=O)O)O[C@@H]2O[C@@]3(C)CC[C@H]4[C@H](C)CC[C@@H]1[C@@]24OO3 [Compound 3, artesunate] | 1760 ± 380 nM | > 300000 nM | 820 ± 370 nM | 1080 ± 560 nM | 1680 ± 440 nM | IC50 (SK-MEL3 cancer cell line; [12]): > 300000 nM; IC50 (SK-MEL3 cancer cell line; [13]): > 300000 nM; IC50 [3, 14]: 1080 ± 600 nM; IC50 [3, 15]: 1090 ± 900 nM; IC50 [4, 16]: 820 ± 50 nM; IC50 [4, 17]: 900 ± 20 nM
5 | COc1cc(/C=C/C(=O)CC(=O)/C=C/c2ccc(O)c(OC)c2)ccc1O [Compound 5, curcumin] | 2120 ± 940 nM | 1690 ± 1240 nM | 3000 ± 1350 nM | 3950 ± 90 nM | > 300000 nM | 
6 | C=CCc1ccc(OC(=O)CCC(=O)OC2OC3OC4(C)CCC5C(C)CCC(C2C)C35OO4)c(OC)c1 (stereo not drawn) [Compound 11ii] |  |  |  |  |  | IC50 ([1]; read-out: IC50 ± SD HeLa, MTT): 1440 ± 1090 nM; IC50 ([2]; SK-MEL3, MTT, 24 h): 4650 ± 1800 nM; IC50 (C3PV cell line; normal human primary fibroblast cell line, MTT): 6790 ± 150 nM; IC50 ([5]; SK-MEL24, MTT, 24 h): 5440 ± 2400 nM; IC50 ([6]; RPMI-7951, MTT, 24 h): 1210 ± 630 nM
7 | C[C@H]1[C@H](OC(=O)CCC(=O)Oc2ccc(CCO)cc2)O[C@@H]2O[C@@]3(C)CC[C@H]4[C@H](C)CC[C@@H]1[C@@]24OO3 [Compound 11iv] |  |  |  |  |  | activity against HeLa (in words) ([1]; MTT): inactive; IC50 ([1]; read-out: IC50 ± SD HeLa, MTT): > 300000 nM; IC50 ([2]; SK-MEL3, MTT, 24 h): 2330 ± 1180 nM; IC50 (SK-MEL3 cancer cell line; [8]): 2330 ± 90 nM; IC50 [3, 9]: 8340 ± 2700 nM; cytotoxicity on normal cell line C3PV (in words) (C3PV cell line; C3PV, MTT): not cytotoxic; IC50 [4, 10]: 2320 ± 900 nM; IC50 ([5]; SK-MEL24, MTT, 24 h): 2320 ± 1190 nM; IC50 ([6]; RPMI-7951, MTT, 24 h): 8340 ± 3060 nM; stability in the cell culture medium (ester bond; release of tyrosol) [7]: No traces of tyrosol were observed

More lines, main results first:

Row | IC50 [1, 11] | IC50 ([2]; Homo sapiens, SK-MEL3, 24 h) | IC50 ([5]; Homo sapiens, SK-MEL-24, 24 h) | IC50 ([6]; Homo sapiens, RPMI-7951, 24 h) | SMILES | IC50 (C3PV cell line; Homo sapiens, C3PV) | also measured
8 | 1630 ± 400 nM | 1370 ± 590 nM | 2690 ± 1300 nM | 1710 ± 520 nM | C=C(C)[C@@H]1CC=C(CO)CC1 [Compound 7, perillyl alcohol] | 3800 ± 280 nM | 
9 | 4680 ± 1640 nM | 1160 ± 320 nM | 2610 ± 340 nM | 840 ± 340 nM | C=CCc1ccc(O)c(OC)c1 [Compound 6, eugenol] | 6880 ± 85 nM | 
10 | 6 ± 1.4 nM | 4730 ± 830 nM | 1040 ± 310 nM | 13 nM | CC(=O)O[C@H]1C(=O)[C@@]2(C)[C@H]([C@H](OC(=O)c3ccccc3)[C@]3(O)C[C@H](OC(=O)[C@H](O)[C@@H](NC(=O)c4ccccc4)c4ccccc4)C(C)=C1C3(C)C)[C@]1(OC(C)=O)CO[C@@H]1C[C@@H]2O [paclitaxel] | 78900 ± 790 nM | 
11 | 3030 ± 1500 nM | 1220 ± 640 nM | 2350 ± 1050 nM | 4110 ± 2100 nM | Cc1c(C)c2c(c(C)c1O)CC[C@@](C)(CCC[C@H](C)CCC[C@H](C)CCCC(C)C)O2 [Compound 9, α-tocopherol] | 74100 ± 5090 nM | 
12 | 1410 ± 790 nM | 2530 ± 1410 nM | 1690 ± 150 nM | 10800 ± 1400 nM | OCCc1ccc(O)cc1 [Compound 8, tyrosol] | 22700 ± 1830 nM | 
